# Source: US12281225B2, “Process for preparing stable polymers containing vinylimidazole” (BASF SE, priority 2018, dated 2025)
# Tests used:
# [1] = Iodine color number according to DIN 6162:2014-09; assay type: physicochemical
# [2] = Physical stability; visual assessment (color, turbidity, phase separation); assay type: physicochemical; design: key: ++: no discernible change with respect to color, turbidity or phase separation; +: marginal change in color number, somewhat increased Tyndall effect but no turbidity; 0: easily discernible increase in color number and moderate turbidity−no phase separation; −: turbidity and change in color number readily discernible by visual assessment; −−: strong color change with strong turbidity and incipient phase separation
# Outline: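 Scoring was by eye on a scale from ++ to −−, where ++ means no change and −− means strong color change, strong turbidity and incipient phase separation. Color, turbidity and phase separation were the criteria.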
# [3] = test system: Yeast: Candida albicans, Candida valida, Rhodotorula rura, Saccharomyces cerevisiae; experiment: Preservation test with periodic inoculation, yeast assessment; assay type: cell-based; settings: for Start sample measurement, yeast assess., 4th inoculation: freshly formulated; for 60 d 40° C., yeast assess., 4th inoculation: sample stored 60 d at 40° C.
# Outline: (§1)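 Semiquantitative growth scores (−− no growth to ++ strong growth) from weekly agar streaks incubated 3 days at 25 °C. Preserved polymer samples got four weekly 0.5 ml inoculations (titer 10^9 organisms/ml), the first two days after preservative addition; testing began fresh and after 60-day storage at 40 °C.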
# [4] = test system: Bacteria: Escherichia coli, Staphylococcus aureus, Pseudomonas aeruginosa, Pseudomonas putida, Burkholderia cepacia, Alcaligenes faecalis; experiment: Preservation test with periodic inoculation, bacteria assessment; assay type: cell-based; settings: for 60 d 40° C., bact. assess., 4th inoculation: sample stored 60 d at 40° C.; for Start sample measurement, bact. assess., 4th inoculation: freshly formulated
# Outline: as §1
# [5] = Polymer P5 (HP56) with stabilizer
smiles,measurement,setting,value
"CCCCCCCCn1sccc1=O [OIT, octylisothiazolinone]","Iodine color number, 60 d 40° C.",[1]; Polymer P1 with stabilizer,5.9
same,"Iodine color number, start",[1]; Polymer P1 with stabilizer,2.8
same,"Iodine color number, 60 d 40° C.",[1]; Polymer P2 with stabilizer,8.0
same,"Iodine color number, start",[1]; Polymer P2 with stabilizer,3.0
same,"Iodine color number, 60 d 40° C.",[1]; Polymer P3 with stabilizer,9.2
same,"Iodine color number, start",[1]; Polymer P3 with stabilizer,3.3
same,"Iodine color number, 60 d 40° C.",[1]; Polymer P4 with stabilizer,9.7
same,"Iodine color number, start",[1]; Polymer P4 with stabilizer,3.3
same,"Iodine color number, 60 d 40° C.",[1]; [5],9.7
same,"Iodine color number, start",[1]; [5],3.4
same,"Iodine color number, 60 d 40° C.",[1]; Polymer P6 with stabilizer,9.7
same,"Iodine color number, start",[1]; Polymer P6 with stabilizer,3.4
same,"Iodine color number, 60 d 40° C.",[1]; Polymer P7 with stabilizer,9.7
same,"Iodine color number, start",[1]; Polymer P7 with stabilizer,3.4
same,"Iodine color number, 60 d 40° C.",[1]; Polymer P8 with stabilizer,10.0
same,"Iodine color number, start",[1]; Polymer P8 with stabilizer,3.3
same,"Iodine color number, 60 d 40° C.",[1]; Polymer P9 with stabilizer,15.5
same,"Iodine color number, start",[1]; Polymer P9 with stabilizer,4.0
same,"Physical stability, 60 d 40° C.*",[2]; Polymer P1 with stabilizer,−−
same,"Physical stability, 60 d 40° C.*",[2]; Polymer P2 with stabilizer,−−
same,"Physical stability, 60 d 40° C.*",[2]; Polymer P3 with stabilizer,−−
same,"Physical stability, 60 d 40° C.*",[2]; Polymer P4 with stabilizer,−−
same,"Physical stability, 60 d 40° C.*",[2]; [5],−−
same,"Physical stability, 60 d 40° C.*",[2]; Polymer P6 with stabilizer,−−
same,"Physical stability, 60 d 40° C.*",[2]; Polymer P7 with stabilizer,−−
same,"Physical stability, 60 d 40° C.*",[2]; Polymer P8 with stabilizer,−−
same,"Physical stability, 60 d 40° C.*",[2]; Polymer P9 with stabilizer,−−
same,"Start sample measurement, yeast assess., 4th inoculation",[3]; Polymer P1,"− (slight growth, max. 100 colonies)"
same,"60 d 40° C., yeast assess., 4th inoculation",[3]; Polymer P1,+
same,"Start sample measurement, yeast assess., 4th inoculation",[3]; Polymer P2,"− (slight growth, max. 100 colonies)"
same,"60 d 40° C., yeast assess., 4th inoculation",[3]; Polymer P2,++
same,"Start sample measurement, yeast assess., 4th inoculation",[3]; Polymer P3,"0 (moderate growth, max. 400 colonies)"
same,"60 d 40° C., yeast assess., 4th inoculation",[3]; Polymer P3,++
same,"Start sample measurement, yeast assess., 4th inoculation",[3]; Polymer P4,"0 (moderate growth, max. 400 colonies)"
same,"60 d 40° C., yeast assess., 4th inoculation",[3]; Polymer P4,++
same,"Start sample measurement, yeast assess., 4th inoculation",[3]; Polymer P5 (HP56),"0 (moderate growth, max. 400 colonies)"
same,"60 d 40° C., yeast assess., 4th inoculation",[3]; Polymer P5 (HP56),++
same,"Start sample measurement, yeast assess., 4th inoculation",[3]; Polymer P6,"0 (moderate growth, max. 400 colonies)"
same,"60 d 40° C., yeast assess., 4th inoculation",[3]; Polymer P6,++
same,"Start sample measurement, yeast assess., 4th inoculation",[3]; Polymer P7,"0 (moderate growth, max. 400 colonies)"
same,"60 d 40° C., yeast assess., 4th inoculation",[3]; Polymer P7,++
same,"Start sample measurement, yeast assess., 4th inoculation",[3]; Polymer P8,"− (slight growth, max. 100 colonies)"
same,"60 d 40° C., yeast assess., 4th inoculation",[3]; Polymer P8,+
same,"Start sample measurement, yeast assess., 4th inoculation",[3]; Polymer P9,"− (slight growth, max. 100 colonies)"
same,"60 d 40° C., yeast assess., 4th inoculation",[3]; Polymer P9,++
same,"60 d 40° C., bact. assess., 4th inoculation",[4]; Polymer P1,+
same,"60 d 40° C., bact. assess., 4th inoculation",[4]; Polymer P2,+
same,"60 d 40° C., bact. assess., 4th inoculation",[4]; Polymer P3,++
same,"Start sample measurement, bact. assess., 4th inoculation",[4]; Polymer P4,"− (slight growth, max. 100 colonies)"
same,"60 d 40° C., bact. assess., 4th inoculation",[4]; Polymer P4,++
same,"Start sample measurement, bact. assess., 4th inoculation",[4]; Polymer P5 (HP56),"− (slight growth, max. 100 colonies)"
same,"60 d 40° C., bact. assess., 4th inoculation",[4]; Polymer P5 (HP56),++
same,"Start sample measurement, bact. assess., 4th inoculation",[4]; Polymer P6,"− (slight growth, max. 100 colonies)"
same,"60 d 40° C., bact. assess., 4th inoculation",[4]; Polymer P6,++
same,"Start sample measurement, bact. assess., 4th inoculation",[4]; Polymer P7,"− (slight growth, max. 100 colonies)"
same,"60 d 40° C., bact. assess., 4th inoculation",[4]; Polymer P7,++
same,"60 d 40° C., bact. assess., 4th inoculation",[4]; Polymer P8,+
same,"60 d 40° C., bact. assess., 4th inoculation",[4]; Polymer P9,++
"CCCCCCCCCCCCCCCC[N+](C)(C)Cc1ccccc1.[Cl-] [Polymer 16-BAC, cetylalkonium chloride]","Iodine color number, 60 d 40° C.",[1]; Polymer P1 with stabilizer,2.7
same,"Iodine color number, start",[1]; Polymer P1 with stabilizer,2.6
same,"Iodine color number, 60 d 40° C.",[1]; Polymer P2 with stabilizer,3.1
same,"Iodine color number, start",[1]; Polymer P2 with stabilizer,3.0
same,"Iodine color number, 60 d 40° C.",[1]; Polymer P3 with stabilizer,3.3
same,"Iodine color number, start",[1]; Polymer P3 with stabilizer,3.1
same,"Iodine color number, 60 d 40° C.",[1]; Polymer P4 with stabilizer,3.3
same,"Iodine color number, start",[1]; Polymer P4 with stabilizer,3.1
same,"Iodine color number, 60 d 40° C.",[1]; [5],3.3
same,"Iodine color number, start",[1]; [5],3.4
same,"Iodine color number, 60 d 40° C.",[1]; Polymer P6 with stabilizer,3.5
same,"Iodine color number, start",[1]; Polymer P6 with stabilizer,3.4
same,"Iodine color number, 60 d 40° C.",[1]; Polymer P7 with stabilizer,3.5
same,"Iodine color number, start",[1]; Polymer P7 with stabilizer,3.4
same,"Iodine color number, 60 d 40° C.",[1]; Polymer P8 with stabilizer,3.5
same,"Iodine color number, start",[1]; Polymer P8 with stabilizer,3.2
same,"Iodine color number, 60 d 40° C.",[1]; Polymer P9 with stabilizer,3.9
same,"Iodine color number, start",[1]; Polymer P9 with stabilizer,3.7
same,"Physical stability, 60 d 40° C.*",[2]; Polymer P1 with stabilizer,+
same,"Physical stability, 60 d 40° C.*",[2]; Polymer P2 with stabilizer,+
same,"Physical stability, 60 d 40° C.*",[2]; Polymer P3 with stabilizer,+
same,"Physical stability, 60 d 40° C.*",[2]; Polymer P4 with stabilizer,+
same,"Physical stability, 60 d 40° C.*",[2]; [5],+
same,"Physical stability, 60 d 40° C.*",[2]; Polymer P6 with stabilizer,+
same,"Physical stability, 60 d 40° C.*",[2]; Polymer P7 with stabilizer,+
same,"Physical stability, 60 d 40° C.*",[2]; Polymer P8 with stabilizer,+
same,"Physical stability, 60 d 40° C.*",[2]; Polymer P9 with stabilizer,++
same,"60 d 40° C., yeast assess., 4th inoculation",[3]; Polymer P1,"− (slight growth, max. 100 colonies)"
same,"Start sample measurement, yeast assess., 4th inoculation",[3]; Polymer P2,"− (slight growth, max. 100 colonies)"
same,"60 d 40° C., yeast assess., 4th inoculation",[3]; Polymer P2,"− (slight growth, max. 100 colonies)"
same,"Start sample measurement, yeast assess., 4th inoculation",[3]; Polymer P3,"− (slight growth, max. 100 colonies)"
same,"60 d 40° C., yeast assess., 4th inoculation",[3]; Polymer P3,"− (slight growth, max. 100 colonies)"
same,"Start sample measurement, yeast assess., 4th inoculation",[3]; Polymer P4,"− (slight growth, max. 100 colonies)"
same,"60 d 40° C., yeast assess., 4th inoculation",[3]; Polymer P4,"− (slight growth, max. 100 colonies)"
same,"Start sample measurement, yeast assess., 4th inoculation",[3]; Polymer P5 (HP56),"− (slight growth, max. 100 colonies)"
same,"60 d 40° C., yeast assess., 4th inoculation",[3]; Polymer P5 (HP56),"− (slight growth, max. 100 colonies)"
same,"Start sample measurement, yeast assess., 4th inoculation",[3]; Polymer P6,"− (slight growth, max. 100 colonies)"
same,"60 d 40° C., yeast assess., 4th inoculation",[3]; Polymer P6,"− (slight growth, max. 100 colonies)"
same,"Start sample measurement, yeast assess., 4th inoculation",[3]; Polymer P7,"− (slight growth, max. 100 colonies)"
same,"60 d 40° C., yeast assess., 4th inoculation",[3]; Polymer P7,"− (slight growth, max. 100 colonies)"
same,"60 d 40° C., yeast assess., 4th inoculation",[3]; Polymer P8,"− (slight growth, max. 100 colonies)"
same,"60 d 40° C., yeast assess., 4th inoculation",[3]; Polymer P9,"− (slight growth, max. 100 colonies)"
same,"60 d 40° C., bact. assess., 4th inoculation",[4]; Polymer P4,"− (slight growth, max. 100 colonies)"
